Laboratory results reported in ChEMBL document CHEMBL4619795, “Establishing the Structure-Activity Relationship of Daptomycin” (ACS Med Chem Lett, 2020).

Experiments:
Format in all cases: functional
Staphylococcus aureus [1] = experiment: Antibacterial activity against methicillin-resistant Staphylococcus aureus 14 assessed as bacterial growth inhibition in presence of 50 ug/ml calcium ions by CLSI protocol based broth microdilution method
Enterococcus [2] = experiment: Antibacterial activity against Enterococcus 6 assessed as bacterial growth inhibition in presence of 50 ug/ml calcium ions by CLSI protocol based broth microdilution method
Staphylococcus aureus [3] = experiment: Antibacterial activity against Staphylococcus aureus ATCC 29213 assessed as bacterial growth inhibition in presence of 50 ug/ml calcium ions by CLSI protocol based broth microdilution method
Staphylococcus aureus [4] = experiment: Antibacterial activity against methicillin-resistant Staphylococcus aureus 86 assessed as bacterial growth inhibition in presence of 50 ug/ml calcium ions by CLSI protocol based broth microdilution method
Staphylococcus aureus [5] = experiment: Antibacterial activity against methicillin-resistant Staphylococcus aureus 88 assessed as bacterial growth inhibition in presence of 50 ug/ml calcium ions by CLSI protocol based broth microdilution method
Enterococcus faecalis [6] = experiment: Antibacterial activity against Enterococcus faecalis ATCC 29212 assessed as bacterial growth inhibition in presence of 50 ug/ml calcium ions by CLSI protocol based broth microdilution method
Enterococcus [7] = experiment: Antibacterial activity against Enterococcus 60 assessed as bacterial growth inhibition in presence of 50 ug/ml calcium ions by CLSI protocol based broth microdilution method
Enterococcus faecalis [8] = experiment: Antibacterial activity against Streptococcus faecalis assessed as bacterial growth inhibition in presence of 50 ug/ml calcium ions by CLSI protocol based broth microdilution method
Staphylococcus aureus [9] = experiment: Antibacterial activity against methicillin-resistant Staphylococcus aureus 11 assessed as bacterial growth inhibition in presence of 50 ug/ml calcium ions by CLSI protocol based broth microdilution method

Row | SMILES | MIC (Staphylococcus aureus [1]) [µg/mL] | MIC (Enterococcus [2]) [µg/mL] | MIC (Staphylococcus aureus [3]) [µg/mL] | MIC (Staphylococcus aureus [4]) [µg/mL] | MIC (Staphylococcus aureus [5]) [µg/mL] | MIC (Enterococcus faecalis [6]) [µg/mL] | MIC (Enterococcus [7]) [µg/mL] | MIC (Enterococcus faecalis [8]) [µg/mL] | MIC (Staphylococcus aureus [9]) [µg/mL]
1 | C#Cc1ccc(C(=O)N[C@@H](Cc2c[nH]c3ccccc23)C(=O)N[C@@H](CC(N)=O)C(=O)N[C@@H](CC(=O)O)C(=O)N[C@@H]2C(=O)NCC(=O)N[C@@H](CCCN)C(=O)N[C@@H](CC(=O)O)C(=O)N[C@H](C)C(=O)N[C@@H](CC(=O)O)C(=O)NCC(=O)N[C@H](CO)C(=O)N[C@@H]([C@@H](C)CC(=O)O)C(=O)N[C@@H](CC(=O)c3ccccc3N)C(=O)O[C@@H]2C)cc1 | ≥ 32 | ≥ 32 | ≥ 32 | ≥ 32 | ≥ 32 | ≥ 32 | ≥ 32 | ≥ 32 | ≥ 32
2 | CCCCCCCCCC(=O)N[C@@H](Cc1ccncc1)C(=O)N[C@@H](CC(N)=O)C(=O)N[C@@H](CC(=O)O)C(=O)N[C@@H]1C(=O)NCC(=O)N[C@@H](CCCN)C(=O)N[C@@H](CC(=O)O)C(=O)N[C@H](C)C(=O)N[C@@H](CC(=O)O)C(=O)NCC(=O)N[C@H](CO)C(=O)N[C@@H]([C@@H](C)CC(=O)O)C(=O)N[C@@H](CC(=O)c2ccccc2N)C(=O)O[C@@H]1C | ≥ 32 | ≥ 32 | ≥ 32 | ≥ 32 | ≥ 32 | ≥ 32 | ≥ 32 | ≥ 32 | ≥ 32
3 | CCCCCCCCCC(=O)N[C@@H](Cc1c[nH]c2ccccc12)C(=O)N[C@@H](CC(N)=O)C(=O)N[C@@H](CC(=O)O)C(=O)N[C@@H]1C(=O)NCC(=O)N[C@@H](CCCN)C(=O)N[C@@H](CCC(=O)O)C(=O)N[C@H](C)C(=O)N[C@@H](CCC(=O)O)C(=O)NCC(=O)N[C@H](CO)C(=O)N[C@@H]([C@@H](C)CC(=O)O)C(=O)N[C@@H](CC(=O)c2ccccc2N)C(=O)O[C@@H]1C | ≥ 32 | ≥ 32 | ≥ 32 | ≥ 32 | ≥ 32 | ≥ 32 | ≥ 32 | ≥ 32 | ≥ 32
4 | CCCCCCCCCC(=O)N[C@@H](Cc1cccc2ccccc12)C(=O)N[C@@H](CC(N)=O)C(=O)N[C@@H](CC(=O)O)C(=O)N[C@@H]1C(=O)NCC(=O)N[C@@H](CCCN)C(=O)N[C@@H](CC(=O)O)C(=O)N[C@H](C)C(=O)N[C@@H](CC(=O)O)C(=O)NCC(=O)N[C@H](CO)C(=O)N[C@@H]([C@@H](C)CC(=O)O)C(=O)N[C@@H](CC(=O)c2ccccc2N)C(=O)O[C@@H]1C | 0.25 | 2 | 0.25 | 0.25 | 0.125 | 2 | 2 | 0.5 | 1
5 | CCCCCCCCCC(=O)N[C@@H](Cc1c[nH]c2ccccc12)C(=O)N[C@@H](CC(N)=O)C(=O)N[C@@H](CC(=O)O)C(=O)N[C@@H]1C(=O)NCC(=O)N[C@@H](CCCN)C(=O)N[C@@H](CC(=O)O)C(=O)N[C@H](C)C(=O)N[C@H](CC(=O)O)C(=O)NCC(=O)N[C@H](CO)C(=O)N[C@@H]([C@@H](C)CC(=O)O)C(=O)N[C@@H](CC(=O)c2ccccc2N)C(=O)O[C@@H]1C | ≥ 32 | ≥ 32 | 16 | 16 | 16 | ≥ 32 | ≥ 32 | ≥ 32 | ≥ 32
6 | C[C@H]1NC(=O)[C@H](CC(=O)O)NC(=O)[C@H](CCCN)NC(=O)CNC(=O)[C@@H](NC(=O)[C@H](CC(=O)O)NC(=O)[C@H](CC(N)=O)NC(=O)[C@H](Cc2c[nH]c3ccccc23)NC(=O)c2ccc(C#CC#Cc3ccccc3)cc2)[C@@H](C)OC(=O)[C@H](CC(=O)c2ccccc2N)NC(=O)[C@H]([C@@H](C)CC(=O)O)NC(=O)[C@@H](CO)NC(=O)CNC(=O)[C@H](CC(=O)O)NC1=O | 0.5 | 4 | 0.5 | 0.5 | 0.5 | 1 | 1 | 1 | 1
7 | CCCCCCCCCC(=O)N[C@@H](Cc1c[nH]c2ccccc12)C(=O)N[C@@H](CC(N)=O)C(=O)N[C@@H](CC(=O)O)C(=O)N[C@@H]1C(=O)NCC(=O)N[C@@H]([C@@H](C)O)C(=O)N[C@@H](CC(=O)O)C(=O)N[C@H](C)C(=O)N[C@@H](CC(=O)O)C(=O)NCC(=O)N[C@H](CO)C(=O)N[C@@H]([C@@H](C)CC(=O)O)C(=O)N[C@@H](CC(=O)c2ccccc2N)C(=O)O[C@@H]1C | 16 | ≥ 32 | 2 | 2 | 2 | ≥ 32 | ≥ 32 | ≥ 32 | 16
8 | C[C@H]1NC(=O)[C@H](CC(=O)O)NC(=O)[C@H](CCCN)NC(=O)CNC(=O)[C@@H](NC(=O)[C@H](CC(=O)O)NC(=O)[C@H](CC(N)=O)NC(=O)[C@H](Cc2c[nH]c3ccccc23)NC(=O)c2ccc(C#Cc3ccc(-c4ccccc4)cc3)cc2)[C@@H](C)OC(=O)[C@H](CC(=O)c2ccccc2N)NC(=O)[C@H]([C@@H](C)CC(=O)O)NC(=O)[C@@H](CO)NC(=O)CNC(=O)[C@H](CC(=O)O)NC1=O | 1 | 0.5 | 2 | 2 | 1 | 0.5 | 2 | 2 | 1
9 | CCCCCCCCCC(=O)N[C@@H](Cc1c[nH]c2ccccc12)C(=O)N[C@@H](CC(N)=O)C(=O)N[C@@H](CC(=O)O)C(=O)N[C@@H]1C(=O)NCC(=O)N[C@@H]([C@@H](C)CC)C(=O)N[C@@H](CC(=O)O)C(=O)N[C@H](C)C(=O)N[C@@H](CC(=O)O)C(=O)NCC(=O)N[C@H](CO)C(=O)N[C@@H]([C@@H](C)CC(=O)O)C(=O)N[C@@H](CC(=O)c2ccccc2N)C(=O)O[C@@H]1C | ≥ 32 | ≥ 64 | 8 | 8 | 4 | ≥ 64 | 32 | ≥ 64 | ≥ 32
10 | CCCCCCCCCC(=O)N[C@@H](Cc1c[nH]c2ccccc12)C(=O)N[C@@H](CC(N)=O)C(=O)N[C@@H](CC(=O)O)C(=O)N[C@@H]1C(=O)NCC(=O)NCC(=O)N[C@@H](CC(=O)O)C(=O)N[C@H](C)C(=O)N[C@@H](CC(=O)O)C(=O)NCC(=O)N[C@H](CO)C(=O)N[C@@H]([C@@H](C)CC(=O)O)C(=O)N[C@@H](CC(=O)c2ccccc2N)C(=O)O[C@@H]1C | ≥ 32 | ≥ 32 | ≥ 32 | ≥ 32 | ≥ 32 | ≥ 32 | ≥ 32 | ≥ 32 | ≥ 32
11 | CCCCCCCCCC(=O)N[C@@H](Cc1c[nH]c2ccccc12)C(=O)N[C@@H](CC(N)=O)C(=O)N[C@@H](CC(=O)O)C(=O)N[C@@H]1C(=O)NCC(=O)N[C@@H](CCC(=O)O)C(=O)N[C@@H](CC(=O)O)C(=O)N[C@H](C)C(=O)N[C@@H](CC(=O)O)C(=O)NCC(=O)N[C@H](CO)C(=O)N[C@@H]([C@@H](C)CC(=O)O)C(=O)N[C@@H](CC(=O)c2ccccc2N)C(=O)O[C@@H]1C | ≥ 32 | ≥ 32 | 16 | ≥ 32 | 16 | ≥ 32 | ≥ 32 | ≥ 32 | ≥ 32
12 | CCCCCCCCCC(=O)N[C@@H](Cc1c[nH]c2ccccc12)C(=O)N[C@@H](CC(N)=O)C(=O)N[C@@H](CC(=O)O)C(=O)N[C@@H]1C(=O)NCC(=O)N[C@@H](CC(N)=O)C(=O)N[C@@H](CC(=O)O)C(=O)N[C@H](C)C(=O)N[C@@H](CC(=O)O)C(=O)NCC(=O)N[C@H](CO)C(=O)N[C@@H]([C@@H](C)CC(=O)O)C(=O)N[C@@H](CC(=O)c2ccccc2N)C(=O)O[C@@H]1C | ≥ 32 | ≥ 32 | ≥ 32 | ≥ 32 | ≥ 32 | ≥ 32 | ≥ 32 | ≥ 32 | ≥ 32
13 | CCCCCCCCCC(=O)N[C@@H](Cc1c[nH]c2ccccc12)C(=O)N[C@@H](CC(N)=O)C(=O)N[C@@H](CC(=O)O)C(=O)N[C@@H]1C(=O)NCC(=O)N[C@@H](CCC(N)=O)C(=O)N[C@@H](CC(=O)O)C(=O)N[C@H](C)C(=O)N[C@@H](CC(=O)O)C(=O)NCC(=O)N[C@H](CO)C(=O)N[C@@H]([C@@H](C)CC(=O)O)C(=O)N[C@@H](CC(=O)c2ccccc2N)C(=O)O[C@@H]1C | ≥ 32 | ≥ 32 | 4 | 4 | 4 | ≥ 32 | ≥ 32 | ≥ 32 | ≥ 32
14 | CCCCCCCCCC(=O)N[C@@H](Cc1c[nH]c2ccccc12)C(=O)N[C@@H](CC(N)=O)C(=O)N[C@@H](CC(=O)O)C(=O)N[C@@H]1C(=O)NCC(=O)N[C@@H](CCCN)C(=O)N[C@@H](CC(=O)O)C(=O)N[C@H](C)C(=O)N[C@@H](CC(=O)O)C(=O)NCC(=O)N[C@H](CO)C(=O)N[C@@H](C)C(=O)N[C@@H](CC(=O)c2ccccc2N)C(=O)O[C@@H]1C | ≥ 64 | ≥ 64 | ≥ 64 | ≥ 64 | ≥ 64 | ≥ 64 | ≥ 64 | ≥ 64 | ≥ 64
15 | CCCCCCCCCC(=O)N[C@@H](Cc1c[nH]c2ccccc12)C(=O)N[C@@H](CC(N)=O)C(=O)N[C@@H](CC(=O)O)C(=O)N[C@@H]1C(=O)NCC(=O)N[C@@H](CCCN)C(=O)N[C@@H](CC(=O)O)C(=O)N[C@H](C)C(=O)N[C@@H](CC(N)=O)C(=O)NCC(=O)N[C@H](CO)C(=O)N[C@@H]([C@@H](C)CC(=O)O)C(=O)N[C@@H](CC(=O)c2ccccc2N)C(=O)O[C@@H]1C | ≥ 32 | ≥ 32 | 16 | 32 | 16 | ≥ 32 | ≥ 32 | ≥ 32 | ≥ 32
